The IC50 is the concentration that inhibits the measured activity by half.

One assay relates to phospho-serine 2056 DNA-PK in HCT116 cells. The assay can be described thus: DNA-PK phosphorylation at serine 2056 (cellular), ELISA in bleomycin-treated HCT116 cells. Type of assay: cell-based. As to conditions: Homo sapiens, HCT-116, 6 h, cellular; HCT116 cells, 10 μM bleomycin, six hours; read-out: IC50 pDNA-PK. The procedure:
HCT116 cells were cultivated at 37° C. and 10% CO2 in MEM alpha medium with 10% of foetal calf serum and 2 mM glutamine. The cells were detached from the base of the culture vessels with the aid of trypsin/EDTA, centrifuged off in centrifuge tubes, taken up in fresh medium, and the cell density was determined. 100,000 cells were sown in 1 ml of culture medium per cavity of a 24-well cell culture plate and cultivated overnight. Next day, 10 μM bleomycin (DNA intercalator and inductor of DNA double-strand breaks) and test substances in fresh culture medium were added to the cells, and these were cultivated for a further six hours. […] The 96-well ELISA plates were subsequently treated with a detection antibody (Abcam ab79444: total DNA-PK) and a streptavidin-HRP conjugate. The development of the enzymatic reaction was carried out with the aid of a chemiluminescent reagent, the chemiluminescence was measured with the aid of a Mithras LB940. The signals with the phospho-DNA-PK-specific antibody were standardised to the signal with the antibody against the total protein DNA-PKc. […] The DMSO control was used as blank.
In general terms: ELISA stands for enzyme-linked immunosorbent assay.
With `CNC(=O)c1ccc(C(O)c2cc(-c3ncnc4cc(N5CCOCC5)ccc34)c(F)cc2Cl)nn1` (centres unmarked) [Example 43, 6-{[2-Chloro-4-fluoro-5-(7-morpholin-4-yl-quinazolin-4-yl)phenyl]-hydroxymethyl}-pyridazine-3-carboxylic acid methylamide], the IC50 lay in the range of 0.5 to 5 µM.

As to `OC(c1cnccn1)c1cc(-c2ncnc3cc(N4CCOCC4)ccc23)c(F)cc1Cl` (centres unmarked) [Example 34, [2-Chloro-4-fluoro-5-(7-morpholin-4-yl-quinazolin-4-yl)phenyl]-pyrazin-2-ylmethanol], the IC50 was in the range of 5 to 10 µM.

As to `NC(=O)c1ccc(C(O)c2cc(-c3ncnc4cc(N5CCOCC5)ccc34)c(F)cc2Cl)nn1` (centres unmarked) [Example 62, 6-{[2-Chloro-4-fluoro-5-(7-morpholin-4-yl-quinazolin-4-yl)phenyl]-hydroxymethyl}-pyridazine-3-carboxylic acid amide], the IC50 is 0.5 to 5 µM.

Still in this assay, the particulars now being: Homo sapiens, HCT-116, cellular DNA-PK phosphorylation at serine 2056, HCT116 cells; read-out: IC50 pDNA-PK.
Regarding `Cn1c(C(O)c2cc(-c3ncnc4cc(N5CCOCC5)ccc34)c(F)cc2Cl)nccc1=O` (centres unmarked) [Example 368, 2-{[2-Chloro-4-fluoro-5-(7-morpholin-4-yl-quinazolin-4-yl)-phenyl]hydroxy-methyl}-3-methyl-3H-pyrimidin-4-one], the IC50 is 5 to 10 µM.

Take `OC(c1cc(-c2ncnc3cc(N4CCOCC4)ccc23)ccc1Cl)c1ncnc2occc12` (centres unmarked) [Example 416, [2-Chloro-5-(7-morpholin-4-yl-quinazolin-4-yl)-phenyl]furo[2,3-d}-pyrimidin-4-yl-methanol]: the IC50 was 0.5 to 5 µM.

On to `OC(c1cc(-c2ncnc3cc(N4CCOCC4)ccc23)c(F)cc1F)c1nnc2ccccn12` (centres unmarked) [Example 379, [2,4-Difluoro-5-(7-morpholin-4-yl-quinazolin-4-yl)-phenyl]-[1,2,4]-triazolo[4,3-a]pyridin-3-ylmethanol], for which the IC50 fell in the range of 0.5 to 5 µM.

The assay is the same for the next values; noted with them: Homo sapiens, HCT-116, phospho-serine 2056 DNA-PK, bleomycin-treated HCT116 cells; class symbols A-D; read-out: IC50 pDNA-PK.
`CCn1cc(C(O)c2cc(-c3ncnc4cc(N5CCOCC5)ccc34)c(F)cc2Cl)cn1` (centres unmarked) [Example 202, [2-Chloro-4-fluoro-5-(7-morpholin-4-ylquinazolin-4-yl)-phenyl]-(1-ethyl-1H-pyrazol-4-yl)-methanol]: the IC50 lay within 0.5 to 5 µM.

On to `Cn1cc(C(O)c2ccc(F)c(-c3ncnc4cc(N5CCOCC5)ccc34)c2)cn1` (centres unmarked) [Example 191, [4-Fluoro-3-(7-morpholin-4-yl-quinazolin-4-yl)-phenyl]-(1-methyl-1H-pyrazol-4-yl)-methanol], for which the concentration for half-maximal inhibition (IC50) was in the range of 10 to 30 µM.

With `OCc1csc(C(O)c2cc(-c3ncnc4cc(N5CCOCC5)ccc34)c(F)cc2Cl)n1` (centres unmarked) [Example 142, [2-Chloro-4-fluoro-5-(7-morpholin-4-yl-quinazolin-4-yl)-phenyl]-(4-hydroxymethyl-thiazol-2-yl)-methanol], the half-inhibitory concentration (IC50) is 0.5 to 5 µM.

Take `OCCNc1nccnc1C(O)c1ccc(F)c(-c2ncnc3cc(N4CCOCC4)ccc23)c1` (centres unmarked) [Example 106, 2-(3-{[4-fluoro-3-(7-morpholin-4-yl-quinazolin-4-yl)-phenyl]hydroxy-methyl}pyrazin-2-yl-amino)ethanol]: the IC50 was 5 to 10 µM.

As for `COc1nnc(C(O)c2cc(-c3ncnc4cc(N5CCOCC5)ccc34)c(F)cc2Cl)cc1C` (centres unmarked) [Example 110, [2-Chloro-4-fluoro-5-(7-morpholin-4-yl-quinazolin-4-yl)-phenyl]-(6-methoxy-5-methylpyridazin-3-yl)methanol], the half-inhibitory concentration (IC50) fell in the range of 0.5 to 5 µM.

With `C#CC(O)(c1ccc(OC)nn1)c1cc(-c2ncnc3cc(N4CCOCC4)ccc23)c(F)cc1Cl` (centres unmarked) [Example 122, 1-[2-Chloro-4-fluoro-5-(7-morpholin-4-yl-quinazolin-4-yl)-phenyl]-1-(6-methoxy-pyridazin-3-yl)-prop-2-yn-1-ol], the half-maximal inhibitory concentration (IC50) fell in the range of 0.5 to 5 µM.

Regarding `COc1ccc(C(O)c2cc(-c3ncnc4cc(N5CCOCC5)ccc34)c(F)cc2Cl)nn1` (centres unmarked) [Example 137, [2-Chloro-4-fluoro-5-(7-morpholin-4-ylquinazolin-4-yl)-phenyl]-(6-methoxy-pyridazin-3-yl)-methanol], the half-maximal inhibitory concentration (IC50) fell in the range of 0.5 to 5 µM.

For the molecule `OC(c1cn2ccnc2cn1)c1cc(-c2ncnc3cc(N4CCOCC4)ccc23)c(F)cc1F` (centres unmarked) [Example 223, [2,4-Difluoro-5-(7-morpholin-4-yl-quinazolin-4-yl)-phenyl]imidazo-[1,2-a]pyrazin-6-yl-methanol], the IC50 lay within 0.5 to 5 µM.

In the case of `Fc1ccc(C(OC(F)F)c2nccs2)cc1-c1ncnc2cc(N3CCOCC3)ccc12` (centres unmarked) [Example 199, 4-[5-(Difluoro-methoxy-thiazol-2-ylmethyl)-2-fluoro-phenyl]-7-morpholin-4-yl-quinazoline], the concentration for half-maximal inhibition (IC50) fell in the range of 10 to 30 µM.

The same assay, now with this note: Homo sapiens, HCT-116, phospho-serine 2056 DNA-PK, bleomycin-treated HCT116 cells; read-out: IC50 pDNA-PK.
As to `Cn1c(C(C(N)=O)c2cc(-c3ncnc4cc(N5CCOCC5)ccc34)c(F)cc2Cl)cccc1=O` (centres unmarked) [Example 312, 2-[2-Chloro-4-fluoro-5-(7-morpholin-4-yl-quinazolin-4-yl)-phenyl]-2-(1-methyl-6-oxo-1,6-dihydro-pyridin-2-yl)-acetamide], the 50% inhibitory concentration (IC50) is 10 to 30 µM.

On to `Cc1nccnc1[C@H](O)c1ccc(F)c(-c2ncnc3cc(N4CCOCC4)cnc23)c1` [Example 234, (R)-[4-Fluoro-3-(7-morpholin-4-yl-pyrido[3,2-d}-pyrimidin-4-yl)-phenyl]-(3-methyl-pyrazin-2-yl)-methanol], for which the 50% inhibitory concentration (IC50) is less than 0.5 µM.

In the case of `OC(c1cc(-c2ncnc3cc(N4CCOCC4)ccc23)c(F)cc1F)c1nncc2ccoc12` (centres unmarked) [Example 336, [2,4-Difluoro-5-(7-morpholin-4-yl-quinazolin-4-yl)-phenyl]furo[2,3-d}-pyridazin-7-yl-methanol], the concentration for half-maximal inhibition (IC50) is less than 0.5 µM.

Regarding `Cc1cc(C(C(N)=O)c2cc(-c3ncnc4cc(N5CCOCC5)ccc34)c(F)cc2Cl)n(C)c(=O)c1` (centres unmarked) [Example 334, 2-[2-Chloro-4-fluoro-5-(7-morpholin-4-yl-quinazolin-4-yl)-phenyl]-2-(1,4-dimethyl-6-oxo-1,6-dihydropyridin-2-yl)-acetamide], the 50% inhibitory concentration (IC50) was 10 to 30 µM.

For the molecule `NC(=O)C(c1ccc2nccn2n1)c1cc(-c2ncnc3cc(N4CCOCC4)ccc23)c(F)cc1Cl` (centres unmarked) [Example 323, 2-[2-Chloro-4-fluoro-5-(7-morpholin-4-yl-quinazolin-4-yl)-phenyl]-2-imidazo-[1,2-b]pyridazin-6-yl-acetamide], the IC50 lay in the range of 0.5 to 5 µM.

`Cc1nccnc1[C@H](O)c1ccc(F)c(-c2ncnc3cc(N4CCOCC4)cc(F)c23)c1` [Example 248, (R)-[4-Fluoro-3-(5-fluoro-7-morpholin-4-ylquinazolin-4-yl)-phenyl]-(3-methyl-pyrazin-2-yl)-methanol]: the IC50 is less than 0.5 µM.

As to `Cc1ncc(C(O)c2ccc(F)c(-c3ncnc4cc(N5CCOCC5)ccc34)c2)nc1C` (centres unmarked) [Example 314, (5,6-Dimethyl-pyrazin-2-yl)-[4-fluoro-3-(7-morpholin-4-yl-quinazolin-4-yl)-phenyl]methanol], the IC50 was 0.5 to 5 µM.

Staying with this assay, now noted: cellular DNA-PK phosphorylation at serine 2056, HCT116 cells; read-out: IC50 pDNA-PK.
On to `Cc1cccnc1C(O)c1ccc(F)c(-c2ncnc3cc(N4CCOCC4)ccc23)c1` (centres unmarked) [Example 472, [4-Fluoro-3-(7-morpholin-4-yl-quinazolin-4-yl)-phenyl]-(3-methyl-pyridin-2-yl)methanol], for which the IC50 is less than 0.5 µM.

Turning to `COc1nccnc1C(O)c1cc(-c2ncnc3cc(N4CCOCC4)ccc23)c(F)cc1F` (centres unmarked) [Example 467, [2,4-Difluoro-5-(7-morpholin-4-yl-quinazolin-4-yl)-phenyl]-(3-methoxy-pyrazin-2-yl)-methanol], the concentration for half-maximal inhibition (IC50) is less than 0.5 µM.

As to `OC(c1ccc(F)c(-c2ncnc3cc(N4CCOCC4)ccc23)c1)c1nccnc1OC(F)F` (centres unmarked) [Example 464, (3-Difluoromethoxy-pyrazin-2-yl)-[4-fluoro-3-(7-morpholin-4-yl-quinazolin-4-yl)-phenyl]methanol], the IC50 lay in the range of 0.5 to 5 µM.

The same assay, now with this note: phospho-serine 2056 DNA-PK, bleomycin-treated HCT116 cells; class symbols A-D; read-out: IC50 pDNA-PK.
On to `CC(C#N)Oc1ccc(C(O)c2cc(-c3ncnc4cc(N5CCOCC5)ccc34)c(F)cc2Cl)nn1` (single isomer, unassigned) [Example 102, 2-(6-{[2-Chloro-4-fluoro-5-(7-morpholin-4-yl-quinazolin-4-yl)-phenyl]hydroxy-methyl}pyridazin-3-yloxy)propionitrile], for which the IC50 was less than 0.5 µM.

Take `CC(C#N)Oc1ccc(C(O)c2cc(-c3ncnc4cc(N5CCOCC5)ccc34)c(F)cc2Cl)nn1` (centres unmarked) [Example 101, 2-(6-{[2-Chloro-4-fluoro-5-(7-morpholin-4-yl-quinazolin-4-yl)-phenyl]hydroxy-methyl}pyridazin-3-yloxy)propionitrile]: the IC50 was less than 0.5 µM.

The assay is the same for the next values; noted with them: phospho-serine 2056 DNA-PK, bleomycin-treated HCT116 cells; read-out: IC50 pDNA-PK.
As to `COc1ccc(C(O)c2cc(-c3ncnc4cc(N5CCOCC5)cc(F)c34)c(F)cc2Cl)nn1` (centres unmarked) [Example 271, [2-Chloro-4-fluoro-5-(5-fluoro-7-morpholin-4-yl-quinazolin-4-yl)-phenyl]-(6-methoxy-pyridazin-3-yl)-methanol (Ena 1)], the IC50 was less than 0.5 µM.

With `[2H]C1([2H])OC([2H])([2H])C([2H])([2H])N(c2ccc3c(-c4cc(C(O)c5nccnc5OC)c(Cl)cc4F)ncnc3c2)C1([2H])[2H]` (centres unmarked) [Example 242, [2-Chloro-4-fluoro-5-[7-(2,2,3,3,5,5,6,6-octadeuterio-morpholin-4-yl)quinazolin-4-yl]phenyl]-(3-methoxypyrazin-2-yl)methanol], the IC50 was less than 0.5 µM.

For the origin of these results see US11065253B2, “Arylquinazolines” (Merck Patent GmbH, priority 2013, dated 2021).
